Laboratory results: PubChem BioAssay AID1918955 (Molecular Pharmacology Branch, DTP, NCI, 2023)

Test system: NCI/ADR-RES complex spheroid viability
Assay: Anticancer human tumor NCI/ADR-RES cell line growth inhibition;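 note: spheroids exposed to compounds for 7 days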;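 for viability, T/C: 100% = DMSO vehicle treated spheroids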
Settings: for IC50: curve of first compound; for viability, T/C: stronger effect = lower value
Summary of the method: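 Multicellular complex spheroids of tumor cells with human endothelial cells (HUVEC) and mesenchymal stem cells; the LSD1 inhibitor iadademstat was combined with standard-of-care or investigational agents. Top concentration at or near clinical Cmax, half-log dilutions; final DMSO ≤0.25%.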

[1] = second compound 0.1 µM, first compound 0.00949 µM
[2] = second compound 0.1 µM, first compound 0.03 µM
[3] = second compound 0.1 µM, first compound 0.0949 µM
[4] = second compound 0.1 µM, first compound 0.3 µM
[5] = second compound 0.316 µM, first compound 0.00949 µM
[6] = second compound 0.316 µM, first compound 0.03 µM
[7] = second compound 0.316 µM, first compound 0.0949 µM
[8] = second compound 0.316 µM, first compound 0.3 µM
[9] = second compound 1 µM, first compound 0.00949 µM
[10] = second compound 1 µM, first compound 0.03 µM
[11] = second compound 1 µM, first compound 0.0949 µM
[12] = second compound 1 µM, first compound 0.3 µM
[13] = second compound 3.16 µM, first compound 0.00949 µM
[14] = second compound 3.16 µM, first compound 0.03 µM
[15] = second compound 3.16 µM, first compound 0.0949 µM
[16] = second compound 3.16 µM, first compound 0.3 µM
[17] = second compound 10 µM, first compound 0.00949 µM
[18] = second compound 10 µM, first compound 0.03 µM
[19] = second compound 10 µM, first compound 0.0949 µM
[20] = second compound 10 µM, first compound 0.3 µM

CCN(c1cc(-c2ccc(CN3CCOCC3)cc2)cc(C(=O)NCc2c(C)cc(C)[nH]c2=O)c1C)C1CCOCC1 + NC1CCC(NC2CC2c2ccccc2)CC1
IC50 (second compound 0.1 µM): > 3000 nM
IC50 (second compound 0.316 µM): > 3000 nM
IC50 (second compound 1 µM): > 3000 nM
IC50 (second compound 3.16 µM): > 3000 nM
IC50 (second compound 10 µM): > 3000 nM
viability, T/C [1]: 92.4%
viability, T/C [2]: 92.5%
viability, T/C [3]: 98.1%
viability, T/C [4]: 98.1%
viability, T/C (second compound 0.1 µM, first compound 0.949 µM): 92.8%
viability, T/C (second compound 0.1 µM, first compound 3 µM): 89.3%
viability, T/C [5]: 94.6%
viability, T/C [6]: 97.9%
viability, T/C [7]: 96.9%
viability, T/C [8]: 95%
viability, T/C (second compound 0.316 µM, first compound 0.949 µM): 91.4%
viability, T/C (second compound 0.316 µM, first compound 3 µM): 81.5%
viability, T/C [9]: 104%
viability, T/C [10]: 99.5%
viability, T/C [11]: 93.8%
viability, T/C [12]: 99%
viability, T/C (second compound 1 µM, first compound 0.949 µM): 95.7%
viability, T/C (second compound 1 µM, first compound 3 µM): 89.2%
viability, T/C [13]: 89.4%
viability, T/C [14]: 98%
viability, T/C [15]: 94%
viability, T/C [16]: 96%
viability, T/C (second compound 3.16 µM, first compound 0.949 µM): 87.6%
viability, T/C (second compound 3.16 µM, first compound 3 µM): 89%
viability, T/C [17]: 91.9%
viability, T/C [18]: 89.8%
viability, T/C [19]: 88.2%
viability, T/C [20]: 86.1%
viability, T/C (second compound 10 µM, first compound 0.949 µM): 90.1%
viability, T/C (second compound 10 µM, first compound 3 µM): 80.9%

Nc1ncn(C2CC(O)C(CO)S2)c(=O)n1 (stereo not given) + NC1CCC(NC2CC2c2ccccc2)CC1
IC50 (second compound 0.1 µM): 17.5 nM
IC50 (second compound 0.316 µM): 12.6 nM
IC50 (second compound 1 µM): 13.9 nM
IC50 (second compound 3.16 µM): 8.87 nM
IC50 (second compound 10 µM): 6.46 nM
viability, T/C (second compound 0.1 µM, first compound 0.000949 µM): 99.2%
viability, T/C (second compound 0.1 µM, first compound 0.003 µM): 76.1%
viability, T/C [1]: 60.2%
viability, T/C [2]: 41.5%
viability, T/C [3]: 25.3%
viability, T/C [4]: 6.6%
viability, T/C (second compound 0.316 µM, first compound 0.000949 µM): 106%
viability, T/C (second compound 0.316 µM, first compound 0.003 µM): 79.3%
viability, T/C [5]: 56.2%
viability, T/C [6]: 34%
viability, T/C [7]: 17.1%
viability, T/C [8]: 6.79%
viability, T/C (second compound 1 µM, first compound 0.000949 µM): 99.9%
viability, T/C (second compound 1 µM, first compound 0.003 µM): 80.3%
viability, T/C [9]: 57%
viability, T/C [10]: 35%
viability, T/C [11]: 18.6%
viability, T/C [12]: 4.76%
viability, T/C (second compound 3.16 µM, first compound 0.000949 µM): 102%
viability, T/C (second compound 3.16 µM, first compound 0.003 µM): 66.1%
viability, T/C [13]: 46.6%
viability, T/C [14]: 37.1%
viability, T/C [15]: 17.7%
viability, T/C [16]: 4.6%
viability, T/C (second compound 10 µM, first compound 0.000949 µM): 85.1%
viability, T/C (second compound 10 µM, first compound 0.003 µM): 57.3%
viability, T/C [17]: 43.7%
viability, T/C [18]: 31%
viability, T/C [19]: 13.9%
viability, T/C [20]: 3.33%

O=C(C=Cn1cnc(-c2cc(C(F)(F)F)cc(C(F)(F)F)c2)n1)NNc1cnccn1 + NC1CCC(NC2CC2c2ccccc2)CC1
IC50 (second compound 0.1 µM): 6.5 nM
IC50 (second compound 0.316 µM): 5.82 nM
IC50 (second compound 1 µM): 5.77 nM
IC50 (second compound 3.16 µM): 4.94 nM
IC50 (second compound 10 µM): 3.46 nM
viability, T/C (second compound 0.1 µM, first compound 0.00316 µM): 80.1%
viability, T/C (second compound 0.1 µM, first compound 0.01 µM): 29.1%
viability, T/C (second compound 0.1 µM, first compound 0.0316 µM): 17.7%
viability, T/C (second compound 0.1 µM, first compound 0.1 µM): 13.6%
viability, T/C (second compound 0.1 µM, first compound 0.316 µM): 5.76%
viability, T/C (second compound 0.1 µM, first compound 1 µM): 2.44%
viability, T/C (second compound 0.316 µM, first compound 0.00316 µM): 72.3%
viability, T/C (second compound 0.316 µM, first compound 0.01 µM): 26.2%
viability, T/C (second compound 0.316 µM, first compound 0.0316 µM): 18.8%
viability, T/C (second compound 0.316 µM, first compound 0.1 µM): 21.9%
viability, T/C (second compound 0.316 µM, first compound 0.316 µM): 4.73%
viability, T/C (second compound 0.316 µM, first compound 1 µM): 1.86%
viability, T/C (second compound 1 µM, first compound 0.00316 µM): 72.3%
viability, T/C (second compound 1 µM, first compound 0.01 µM): 27.6%
viability, T/C (second compound 1 µM, first compound 0.0316 µM): 17.8%
viability, T/C (second compound 1 µM, first compound 0.1 µM): 11.6%
viability, T/C (second compound 1 µM, first compound 0.316 µM): 8.01%
viability, T/C (second compound 1 µM, first compound 1 µM): 3.34%
viability, T/C (second compound 3.16 µM, first compound 0.00316 µM): 65%
viability, T/C (second compound 3.16 µM, first compound 0.01 µM): 24.6%
viability, T/C (second compound 3.16 µM, first compound 0.0316 µM): 15.9%
viability, T/C (second compound 3.16 µM, first compound 0.1 µM): 7.79%
viability, T/C (second compound 3.16 µM, first compound 0.316 µM): 4.6%
viability, T/C (second compound 3.16 µM, first compound 1 µM): 2.43%
viability, T/C (second compound 10 µM, first compound 0.00316 µM): 52.9%
viability, T/C (second compound 10 µM, first compound 0.01 µM): 20.5%
viability, T/C (second compound 10 µM, first compound 0.0316 µM): 9.74%
viability, T/C (second compound 10 µM, first compound 0.1 µM): 5.15%
viability, T/C (second compound 10 µM, first compound 0.316 µM): 3.07%
viability, T/C (second compound 10 µM, first compound 1 µM): 1.56%
